From patent US20260242416A1, “ANTIMICROBIAL PEPTIDES” (priority 2023, published 2026)
In brackets after ≈: the same amount, converted by molar mass. Entries after “also recorded” stand apart in the source; their conditions may differ. Where two headings read alike, the source gives them in different places. Where a SMILES comes first, the peptide text is derived from it.

How the values were obtained:
E. coli ATCC 25922 = type: cell-based, Escherichia coli
Summary of the method: (§1)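 MIC taken as lowest peptide level showing no visible growth after 20-24 h at 37° C. Twofold series 128-0.5 μg/mL in Mueller-Hinton broth, polypropylene plates, final inoculum 2-8×10^5 cfu/mL, per CLSI with cationic-peptide adaptations.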

[1] = system: E. coli ATCC 25922, Salmonella Enteritidis, S. aureus ATCC 29213; assay: Broth microdilution, panel result (at least one / all strains), Example 2; type: cell-based; design: key to inhibitory activity (asterisk): *Indicates inhibitory activity; details: for inhibitory activity (asterisk): Table 14, against at least one of E. coli ATCC 25922, Salmonella Enteritidis, S. aureus ATCC 29213; for spectrum of antimicrobial activity: panel of E. coli, Salmonella Enteritidis, S. aureus, up to 128 μg/mL
Summary of the method: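 CLSI broth microdilution adapted for cationic peptides, in MHB with a final inoculum of 2-8×10^5 cfu/mL in polypropylene plates. Peptides were serially diluted from 128 down to 0.5 μg/mL and incubated 20-24 h at 37° C. MIC is the lowest concentration with no visible growth.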

[2] = system: Salmonella enterica serovar Enteritidis (human clinical isolate); type: cell-based; details: serovar Enteritidis (human clinical isolate)
Summary of the method: as §1

S. aureus ATCC 29213 = type: cell-based, Staphylococcus aureus; details: for MIC (ug/mL) S. aureus: ATCC 29213
Summary of the method: as §1

[3] = alamarBlue cell viability assay (cytotoxicity); type: cell-based, human; details: human, HEK293 cells; for viability at 4 h, 64 µg/mL: at 64 μg/mL; for viability at 4 h, 128 µg/mL: at 128 μg/mL
Method: (§2) The human embryonic kidney cell line HEK293 and the corresponding growth media and supplements were purchased from the ATCC. The cells were maintained in Eagle's Minimum Essential Medium (EMEM) supplemented with 10% fetal bovine serum (FBS) and 1% Penicillin-Streptomycin solution and grown in a 5% CO2 incubator at 37° C. […] Cells were incubated overnight to allow them to adhere. […] TX-100 was diluted to 2% in UltraPure deionized water and added as a positive control. Complete growth medium was added to the peptides and TX-100 containing wells. Spent growth medium of wells with adhered cells was replaced with the contents of wells containing serially diluted peptides or TX-100. Cells were incubated for four hours at 37° C. in 5% CO2 incubator. Growth medium containing peptides or TX-100 was replaced with fresh growth medium containing 10% (v/v) alamarBlue (Bio-Rad Laboratories, Hercules, CA, USA) and incubated for 20 h. Fluorescence was measured at excitation of 540 nm and emission of 590 nm in a Cytation 5 plate reader (Agilent BioTek, Winooski, VT, USA) and results recorded and analyzed with Gen5 software (Agilent BioTek, Winooski, VT, USA). The average fluorescence reads of TX-100 and growth media only wells were used to calculate 0% and 100% cell viability, respectively. The percentage of viable cells at each peptide concentration was determined by Formula 1: […]

HEK293 cells = assay: alamarBlue cell viability assay (cytotoxicity); type: cell-based, human; details: concentrations up to 128 μg/mL
Method: as §2

Row | Compound | MIC against E. coli (E. coli ATCC 25922) | inhibitory activity (asterisk) [1] | spectrum of antimicrobial activity [1] | MIC (ug/mL) S. Enteritidis [2] | MIC (ug/mL) S. aureus (S. aureus ATCC 29213) | viability at 4 h, 64 µg/mL [3] | viability at 4 h, 128 µg/mL [3] | cytotoxicity (HEK293 cells) | MIC (ug/mL) E. coli (E. coli ATCC 25922; ATCC 25922) | MIC against E. coli (E. coli ATCC 25922; ATCC 25922) | MIC against Salmonella Enteritidis [2] | MIC against S. aureus (S. aureus ATCC 29213)
1 | CC[C@H](C)[C@H](NC(=O)CNC(=O)[C@H](CCCNC(=N)N)NC(=O)[C@H](CC(C)C)NC(=O)[C@H](CC(C)C)NC(=O)CN)C(=O)N[C@@H](CC(C)C)C(=O)NCC(=O)N[C@@H](C)C(=O)NCC(=O)N[C@@H](CCCCN)C(=O)N[C@@H](CCCCN)C(=O)N[C@H](C(=O)N[C@H](C(=O)N[C@@H](CS)C(=O)NCC(=O)N[C@@H](CC(C)C)C(=O)N[C@@H](CO)C(=O)NCC(=O)N[C@@H](CC(C)C)C(=O)N[C@@H](CS)C(=O)O)C(C)C)[C@@H](C)CC [OdMa2] (H-GLLRGILGAGKKIVCGLSGLC-OH; N-terminus and C-terminus assumed) | 4 µg/mL (≈ 1.97 µM) | 64.* GLLRGILGAGKKIVCGLSGLC | active against all three bacteria | 8 to 16 µg/mL | 4 to 8 µg/mL | < 75% | ~0% | high levels of cytotoxicity at concentrations higher than their MICs | – | – | – | –
2 | CC(C)C[C@H](NC(=O)[C@H](CCCNC(=N)N)NC(=O)[C@@H]1CCCN1C(=O)[C@H](Cc1c[nH]cn1)NC(=O)[C@@H]1CCCN1C(=O)[C@@H]1CCCN1C(=O)[C@H](CCCNC(=N)N)NC(=O)[C@@H]1CCCN1C(=O)[C@@H]1CCCN1C(=O)[C@@H](NC(=O)[C@H](CCC(N)=O)NC(=O)[C@H](CCC(N)=O)NC(=O)[C@@H]1CCCN1C(=O)[C@H](CCCNC(=N)N)NC(=O)[C@@H]1CCCN1C(=O)[C@@H](N)CCCNC(=N)N)C(C)C)C(=O)N[C@@H](CCCNC(=N)N)C(=O)N[C@@H](CCCNC(=N)N)C(=O)O [PaVa1, RPRPQQVPPRPPHPRLRR] (H-RPRPQQVPPRPPHPRLRR-OH) | – | – | – | 4 to 8 µg/mL | > 128 µg/mL | – | – | not to be toxic to HEK293 cells at any of the concentrations tested; also recorded: not toxic against either porcine erythrocytes or HEK293 cells | 2 to 4 µg/mL | 2 to 4 µg/mL | 4 to 8 µg/mL | –
3 | CC(C)C[C@H](NC(=O)CNC(=O)[C@@H](NC(=O)[C@@H](NC(=O)CNC(=O)[C@H](CS)NC(=O)[C@H](CC(C)C)NC(=O)[C@@H](NC(=O)[C@H](CCCCN)NC(=O)[C@H](CCCCN)NC(=O)CNC(=O)[C@@H](NC(=O)CNC(=O)[C@H](CC(C)C)NC(=O)[C@@H](NC(=O)[C@H](CCCCN)NC(=O)CNC(=O)[C@H](CC(C)C)NC(=O)[C@H](CC(C)C)NC(=O)CN)C(C)C)C(C)C)C(C)C)C(C)C)[C@@H](C)O)C(=O)N[C@@H](CS)C(=O)O [PeNi1] (H-GLLGKVLGVGKKVLCGVTGLC-OH; N-terminus and C-terminus assumed) | 4 µg/mL (≈ 1.99 µM) | 363.* GLLGKVLGVGKKVLCGVTGLC | active against all three bacteria | 8 to 16 µg/mL | – | < 75% | ~0% | high levels of cytotoxicity at concentrations higher than their MICs | – | – | – | 4 µg/mL (≈ 1.99 µM)
4 | CC[C@H](C)[C@H](NC(=O)CN)C(=O)N[C@@H](CC(C)C)C(=O)N[C@@H](CO)C(=O)NCC(=O)N[C@@H](CC(C)C)C(=O)N[C@@H](CC(C)C)C(=O)NCC(=O)N[C@@H](C)C(=O)NCC(=O)N[C@@H](CCCCN)C(=O)N[C@@H](CCCCN)C(=O)N[C@H](C(=O)N[C@H](C(=O)N[C@@H](CS)C(=O)NCC(=O)N[C@@H](CC(C)C)C(=O)N[C@@H](CO)C(=O)NCC(=O)N[C@@H](CCSC)C(=O)N[C@@H](CS)C(=O)O)C(C)C)[C@@H](C)CC [RaOm2] (H-GILSGLLGAGKKIVCGLSGMC-OH; N-terminus and C-terminus assumed) | – | 629.* GILSGLLGAGKKIVCGLSGMC | – | > 128 µg/mL | > 128 µg/mL | – | – | – | 64 to 128 µg/mL | – | – | –
5 | CC[C@H](C)[C@H](NC(=O)CN)C(=O)N[C@@H](Cc1ccccc1)C(=O)N[C@@H](CO)C(=O)N[C@@H](CC(C)C)C(=O)N[C@H](C(=O)N[C@@H](CCCCN)C(=O)NCC(=O)N[C@@H](C)C(=O)N[C@@H](C)C(=O)N[C@@H](CCCCN)C(=O)N[C@H](C(=O)N[C@H](C(=O)N[C@@H](C)C(=O)N[C@@H](CCCCN)C(=O)NCC(=O)N[C@@H](CC(C)C)C(=O)NCC(=O)N[C@@H](CCCCN)C(=O)O)C(C)C)C(C)C)[C@@H](C)CC [RaOm3, GIFSLIKGAAKVVAKGLGK] (H-GIFSLIKGAAKVVAKGLGK-OH; N-terminus and C-terminus assumed) | – | 1099.* GIFSLIKGAAKVVAKGLGK | – | 32 to 64 µg/mL | 64 µg/mL (≈ 34.5 µM) | – | – | – | 8 to 16 µg/mL | – | – | –
6 | CC(C)C[C@H](NC(=O)CN)C(=O)N[C@@H](CC(C)C)C(=O)NCC(=O)N[C@@H](CCCCN)C(=O)N[C@H](C(=O)N[C@@H](CC(C)C)C(=O)NCC(=O)N[C@H](C(=O)NCC(=O)N[C@@H](CCCCN)C(=O)N[C@@H](CCCCN)C(=O)N[C@H](C(=O)N[C@@H](CC(C)C)C(=O)N[C@@H](CS)C(=O)NCC(=O)N[C@H](C(=O)N[C@@H](CO)C(=O)NCC(=O)N[C@@H](CCCNC(=N)N)C(=O)N[C@@H](CS)C(=O)O)C(C)C)C(C)C)C(C)C)C(C)C [RaOm4] (H-GLLGKVLGVGKKVLCGVSGRC-OH; N-terminus and C-terminus assumed) | – | 628.* GLLGKVLGVGKKVLCGVSGRC | – | 32 µg/mL (≈ 15.7 µM) | 64 to 128 µg/mL | – | – | – | 4 to 8 µg/mL | – | – | –
7 | CC[C@H](C)[C@H](NC(=O)[C@H](CC(C)C)NC(=O)[C@H](CCCCN)NC(=O)[C@H](CC(C)C)NC(=O)CNC(=O)CNC(=O)[C@H](CCCCN)NC(=O)[C@@H](NC(=O)[C@H](CC(C)C)NC(=O)[C@H](CCCCN)NC(=O)CNC(=O)[C@@H](NC(=O)[C@H](CC(C)C)NC(=O)CN)C(C)C)C(C)C)C(=O)NCC(=O)N[C@@H](Cc1c[nH]cn1)C(=O)N[C@H](C(=O)N[C@@H](C)C(=O)N[C@@H](CC(N)=O)C(=O)NCC(=O)O)C(C)C [RaSi1] (H-GLVGKLVKGGLKLIGHVANG-OH; N-terminus and C-terminus assumed) | – | 2.* GLVGKLVKGGLKLIGHVANG | – | > 128 µg/mL | 64 to 128 µg/mL | – | – | – | 8 to 16 µg/mL | – | – | –
8 | CC[C@H](C)[C@H](NC(=O)[C@H](CCCNC(=N)N)NC(=O)[C@H](CCCNC(=N)N)NC(=O)[C@@H]1CCCN1C(=O)[C@H](CS)NC(=O)[C@H](CS)NC(=O)[C@H](Cc1ccc(O)cc1)NC(=O)[C@H](CS)NC(=O)[C@H](CC(C)C)NC(=O)[C@@H](NC(=O)[C@H](CCCNC(=N)N)NC(=O)[C@@H](NC(=O)[C@H](Cc1ccccc1)NC(=O)[C@H](C)N)C(C)C)[C@@H](C)CC)C(=O)N[C@@H](CCCCN)C(=O)N[C@@H](CCCNC(=N)N)C(=O)N[C@@H](CCCNC(=N)N)C(=O)O [TeRu2, AFVRILCYCCPRRIKRR] (H-AFVRILCYCCPRRIKRR-OH; N-terminus and C-terminus assumed) | – | 994.* AFVRILCYCCPRRIKRR | – | > 128 µg/mL | 128 µg/mL (≈ 59.4 µM) | – | – | – | 64 to 128 µg/mL | – | – | –
